Patent publication US9938261B2, “Heterocyclic compounds and methods of use thereof” (AMBIT BIOSCIENCES CORPORATION, priority 2011, dated 2018)

Key:
FLT3 = target: T1, FLT3 (Homo sapiens, UniProt P36888); assay: Competition binding assay, FLT3 Kd
T1 construct: made in house
T1 sequence (P36888 27-993): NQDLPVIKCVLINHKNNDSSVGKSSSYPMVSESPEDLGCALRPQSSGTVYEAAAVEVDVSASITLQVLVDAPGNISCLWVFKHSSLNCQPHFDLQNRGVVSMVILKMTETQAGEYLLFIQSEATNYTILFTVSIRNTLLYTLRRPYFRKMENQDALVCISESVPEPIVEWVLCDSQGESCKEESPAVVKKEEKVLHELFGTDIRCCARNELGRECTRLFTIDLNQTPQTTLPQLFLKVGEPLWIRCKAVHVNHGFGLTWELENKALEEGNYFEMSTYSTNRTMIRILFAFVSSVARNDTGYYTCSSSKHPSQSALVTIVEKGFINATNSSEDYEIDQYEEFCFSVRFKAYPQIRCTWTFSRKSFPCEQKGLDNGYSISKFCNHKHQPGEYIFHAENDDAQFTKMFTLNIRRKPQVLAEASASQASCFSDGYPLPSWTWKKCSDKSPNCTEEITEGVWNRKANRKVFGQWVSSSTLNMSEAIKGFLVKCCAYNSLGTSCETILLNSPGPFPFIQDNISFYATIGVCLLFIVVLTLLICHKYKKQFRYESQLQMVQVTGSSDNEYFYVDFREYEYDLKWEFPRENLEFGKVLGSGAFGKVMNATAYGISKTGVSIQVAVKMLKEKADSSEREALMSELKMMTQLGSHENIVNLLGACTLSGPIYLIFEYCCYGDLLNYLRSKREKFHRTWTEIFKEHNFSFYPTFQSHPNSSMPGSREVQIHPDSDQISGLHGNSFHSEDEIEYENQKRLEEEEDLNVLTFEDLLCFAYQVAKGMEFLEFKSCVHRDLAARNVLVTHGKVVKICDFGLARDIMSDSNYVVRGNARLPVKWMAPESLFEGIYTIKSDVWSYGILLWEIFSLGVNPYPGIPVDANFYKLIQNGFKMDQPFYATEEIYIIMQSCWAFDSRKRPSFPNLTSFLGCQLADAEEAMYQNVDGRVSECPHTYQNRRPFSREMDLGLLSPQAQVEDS
Experimental: (§1) Competition binding assays used herein were developed, validated and performed as described in Fabian et al., Nature Biotechnology 2005, 23, 329-336. Kinases were produced as fusions to T7 phage (See, Fabian et al. or WO04/015142) or alternatively, the kinases were expressed in HEK-293 cells and subsequently tagged with DNA for PCR detection (See, WO08/005310). For the binding assays, streptavidin-coated magnetic beads were treated with biotinylated affinity ligands for 30 min at room temperature to generate affinity resins. The liganded beads were blocked with excess biotin and washed with blocking buffer (SeaBlock (Pierce), 1% BSA, 0.05% Tween 20, 1 mM DTT) to remove unbound ligand and to reduce non-specific binding. Binding reactions were assembled by combining kinase, liganded affinity beads, and test compounds in 1× binding buffer (20% SeaBlock, 0.17×PBS, 0.05% Tween 20, 6 mM DTT). Test compounds were prepared as 100× stocks in DMSO and diluted into the aqueous environment. Kds were determined using an eleven point threefold serial dilutions. DMSO or control compounds were was added to control assays lacking a test compound. Primary screen assays were performed in polypropylene 384-well plates in a final volume of 20-40 μL, while Kd determinations were performed in polystyrene 96-well plates in a final volume of 135 μL. The assay plates were incubated at room temperature with shaking for 1 hour to allow the binding reactions to reach equilibrium, and the affinity beads were washed extensively with wash buffer (1×PBS, 0.05% Tween 20) to remove unbound protein. The beads were then resuspended in elution buffer (1×PBS, 0.05% Tween […] non-biotinylated affinity ligand) and incubated at room temperature with shaking for 30 min. The kinase concentration in the eluates was measured by quantitative PCR.

KIT = target: T2, KIT (Homo sapiens, UniProt P10721); assay: Competition binding assay, KIT Kd
T2 construct: made in house
Experimental: as §1

PDGFRβ = target: T3, PDGFRβ (Homo sapiens, UniProt P09619); assay: Competition binding assay, PDGFRβ Kd
T3 construct: made in house
Experimental: as §1

M-NFS-60 cells = assay: M-NFS-60 cell proliferation assay (Alamar Blue); type: cell-based, mouse; conditions: Mus musculus; 72 hours incubation, M-CSF 20 ng/mL; read-out: CSF1R M-NFS-60 CTB:IC50
Experimental: The compounds disclosed herein were tested in an M-NFS-60 cell proliferation assay to determine their cellular potency against CSF1R. M-NFS-60s are mouse monocytic cells that depend on the binding of the ligand M-CSF to its receptor, CSF1R, to proliferate. Inhibition of CSF1R kinase activity will cause reduced growth and/or cell death. This assay assesses the potency of compounds as CSF1R inhibitors by measuring the reduction of Alamar Blue reagent by viable cells.
On day one of the experiment, M-NFS-60 cells were maintained in RPMI complete medium (Omega Scientific) plus 10% FBS supplemented with 20 ng/mL of M-CSF (R&D Systems). 96-well TC-treated, flat bottom plates were seeded at 10,000 cell/well at a volume of 100 μL per well. The cells were cultured overnight at 37° C. under 5% CO2.
On day two, compounds were added to the cells at 9 different concentrations, with half-log intervals alongside a control reference compound serving as a positive control. Final DMSO concentration was kept at 0.5% for a final volume of 200 μL. The compounds were allowed to incubate with the cells for 72 hours at 37° C. under 5% CO2.
On day five of the experiment, 40 μl of Alamar Blue reagent was added to each well and allowed to incubate for 3 hours. Alamar Blue fluorescence was read using SoftMax Pro software at 560 nm (excitation) and 590 nm (emission). IC50s were generated as an average of duplicates and represents the concentration of test compound that achieves 50% inhibition of cellular proliferation compared to control.

CSF1R [1] = target: T4, CSF1R (Homo sapiens, UniProt P07333); assay: Competition binding assay, CSF1R Kd; parameters: made in house
Experimental: as §1

CSF1R [2] = target: T4, CSF1R; assay: HEK293 CSF1R phosphorylation MSD assay; type: cell-based; parameters: expressed in transfected cells; host or cells: HEK293; conditions: 2 h compound, human M-CSF 50 ng/mL for 5 min; read-out: HEK293 pCSF1R M-CSF MSD:IC50
Experimental: The compounds disclosed herein were tested in a CSF1R phosphorylation assay to determine their cellular potency against CSF1R. A HEK293 cell line expressing CSF1R fused to FK506 binding protein (FKBP) as a molecular tag was generated. Inhibition of CSF1R kinase activity will prevent ligand-stimulated autophosphorylation of the CSF1R-FKBP in intact cells. Subsequent cell lysates are assayed in a sandwich ELISA employing the electrochemiluminescent Meso Scale Discovery (MSD) technology for the presence of the phosphorylated (p)CSF1R-FKBP. This assay determines the potency of compounds as CSF1R inhibitors by measuring the reduction in the amount of pCSF1R with increasing doses of compounds added to the cells prior to M-CSF stimulation.
On day one of the experiment, HEK293-CSF1R-FKPB cells, maintained in DMEM, with L-glutamine (Mediatech), 10% FBS, and 100 units/mL Penicillin/Streptomycin, were seeded at 50,000 cell/well in a volume of 100 μL per well in 96-well Cell Bind plates (Costar). The cells were cultured overnight at 37° C. under 5% CO2. To prepare the plates used in the MSD assay, a 330 nM biotin-FK506 (in TBS pH 7.2) solution was added at 30 μL per well to streptavidin-coated 96-well plates (MSD), and incubated overnight at room temperature, shaking at 500 rpm on an orbital shaker.
On day two, compounds diluted in DMSO were added to the cells in duplicate plates at 9 different concentrations with half-log intervals, plus DMSO only control, alongside a reference compound serving as a positive control. Final DMSO concentration was 0.5% in a volume of 200 μL per well. The compounds were allowed to incubate with the cells for 2 h at 37° C. under 5% CO2. At the end of the incubation, human M-CSF (R&D Systems) was added for 5 min to a final concentration of 50 ng/mL to stimulate CSF1R phosphorylation. Cells were lysed for 20 min, and the lysates were applied to the washed, FK506-coated MSD plates, and incubated overnight at 4° C. shaking at 500 rpm.
On day three, the MSD plates were washed, and the captured CSF1R-FKBP was assayed sequentially for phosphorylation using mouse anti-phosphotyrosine antibody (Millipore) and Sulfo-TAG goat anti-mouse IgG antibody (MSD), and detected on a Sector Imager 6000 instrument (MSD).
A single IC50 value for each compound was determined by averaging the IC50s of the duplicates calculated using Igor Pro 6 software, and represents the compound concentration that achieves a 50% inhibition of ligand-induced CSF1R phosphorylation compared to DMSO control.

T3 sequence (P09619 33-1106): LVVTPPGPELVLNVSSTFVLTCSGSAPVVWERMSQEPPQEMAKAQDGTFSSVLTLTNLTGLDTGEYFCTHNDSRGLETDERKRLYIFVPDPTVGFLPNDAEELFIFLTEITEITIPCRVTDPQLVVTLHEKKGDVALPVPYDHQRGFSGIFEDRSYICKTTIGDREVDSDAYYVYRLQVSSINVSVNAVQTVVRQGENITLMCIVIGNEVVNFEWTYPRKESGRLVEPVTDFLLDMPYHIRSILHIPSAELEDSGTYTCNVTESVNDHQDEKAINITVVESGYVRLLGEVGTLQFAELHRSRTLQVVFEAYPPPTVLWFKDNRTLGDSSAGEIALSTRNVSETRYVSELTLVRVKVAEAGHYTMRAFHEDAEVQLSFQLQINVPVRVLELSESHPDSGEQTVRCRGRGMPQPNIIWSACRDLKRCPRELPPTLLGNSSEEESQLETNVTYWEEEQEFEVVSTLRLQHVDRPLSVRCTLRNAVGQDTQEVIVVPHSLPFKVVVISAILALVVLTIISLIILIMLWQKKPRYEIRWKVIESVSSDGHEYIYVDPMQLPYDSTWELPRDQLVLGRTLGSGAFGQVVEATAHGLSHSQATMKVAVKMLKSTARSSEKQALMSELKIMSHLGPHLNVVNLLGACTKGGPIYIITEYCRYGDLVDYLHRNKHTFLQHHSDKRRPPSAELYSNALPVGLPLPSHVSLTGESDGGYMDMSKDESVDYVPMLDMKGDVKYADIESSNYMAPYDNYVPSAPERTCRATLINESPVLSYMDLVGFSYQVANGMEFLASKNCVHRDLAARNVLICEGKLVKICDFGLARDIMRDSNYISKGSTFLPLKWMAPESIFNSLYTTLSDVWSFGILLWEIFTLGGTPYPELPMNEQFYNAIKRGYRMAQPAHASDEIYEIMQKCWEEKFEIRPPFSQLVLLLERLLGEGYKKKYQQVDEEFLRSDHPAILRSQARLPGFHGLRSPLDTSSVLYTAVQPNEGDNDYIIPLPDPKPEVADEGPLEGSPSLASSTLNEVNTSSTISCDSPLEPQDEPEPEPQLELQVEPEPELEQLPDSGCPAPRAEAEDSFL
T4 sequence (P07333 20-972): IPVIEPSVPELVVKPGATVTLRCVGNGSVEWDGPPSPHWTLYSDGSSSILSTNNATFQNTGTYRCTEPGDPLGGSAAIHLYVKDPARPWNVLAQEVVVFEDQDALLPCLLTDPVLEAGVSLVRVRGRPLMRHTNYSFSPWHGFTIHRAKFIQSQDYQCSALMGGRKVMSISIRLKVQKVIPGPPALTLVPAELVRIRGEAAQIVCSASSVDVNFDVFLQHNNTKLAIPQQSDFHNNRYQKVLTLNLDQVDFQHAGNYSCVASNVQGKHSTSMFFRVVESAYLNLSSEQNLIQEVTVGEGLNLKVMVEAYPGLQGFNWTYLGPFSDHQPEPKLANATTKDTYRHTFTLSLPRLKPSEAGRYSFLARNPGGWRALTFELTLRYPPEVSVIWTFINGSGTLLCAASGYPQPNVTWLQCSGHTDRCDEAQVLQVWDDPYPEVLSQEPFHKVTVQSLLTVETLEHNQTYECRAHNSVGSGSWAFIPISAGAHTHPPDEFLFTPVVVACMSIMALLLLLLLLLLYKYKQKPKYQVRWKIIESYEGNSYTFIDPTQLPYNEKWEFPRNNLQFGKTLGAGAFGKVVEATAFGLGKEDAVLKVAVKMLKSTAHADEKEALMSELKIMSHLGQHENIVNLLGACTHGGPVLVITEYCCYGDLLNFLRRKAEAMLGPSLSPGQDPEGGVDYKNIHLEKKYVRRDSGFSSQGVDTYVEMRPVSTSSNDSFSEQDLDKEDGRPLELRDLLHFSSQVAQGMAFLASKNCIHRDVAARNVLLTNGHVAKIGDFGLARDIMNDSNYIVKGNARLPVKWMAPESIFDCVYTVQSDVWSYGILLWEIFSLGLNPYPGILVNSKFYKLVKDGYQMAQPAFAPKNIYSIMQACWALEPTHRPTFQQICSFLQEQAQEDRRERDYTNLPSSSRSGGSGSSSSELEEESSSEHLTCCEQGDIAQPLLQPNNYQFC
T2 sequence (P10721 26-976): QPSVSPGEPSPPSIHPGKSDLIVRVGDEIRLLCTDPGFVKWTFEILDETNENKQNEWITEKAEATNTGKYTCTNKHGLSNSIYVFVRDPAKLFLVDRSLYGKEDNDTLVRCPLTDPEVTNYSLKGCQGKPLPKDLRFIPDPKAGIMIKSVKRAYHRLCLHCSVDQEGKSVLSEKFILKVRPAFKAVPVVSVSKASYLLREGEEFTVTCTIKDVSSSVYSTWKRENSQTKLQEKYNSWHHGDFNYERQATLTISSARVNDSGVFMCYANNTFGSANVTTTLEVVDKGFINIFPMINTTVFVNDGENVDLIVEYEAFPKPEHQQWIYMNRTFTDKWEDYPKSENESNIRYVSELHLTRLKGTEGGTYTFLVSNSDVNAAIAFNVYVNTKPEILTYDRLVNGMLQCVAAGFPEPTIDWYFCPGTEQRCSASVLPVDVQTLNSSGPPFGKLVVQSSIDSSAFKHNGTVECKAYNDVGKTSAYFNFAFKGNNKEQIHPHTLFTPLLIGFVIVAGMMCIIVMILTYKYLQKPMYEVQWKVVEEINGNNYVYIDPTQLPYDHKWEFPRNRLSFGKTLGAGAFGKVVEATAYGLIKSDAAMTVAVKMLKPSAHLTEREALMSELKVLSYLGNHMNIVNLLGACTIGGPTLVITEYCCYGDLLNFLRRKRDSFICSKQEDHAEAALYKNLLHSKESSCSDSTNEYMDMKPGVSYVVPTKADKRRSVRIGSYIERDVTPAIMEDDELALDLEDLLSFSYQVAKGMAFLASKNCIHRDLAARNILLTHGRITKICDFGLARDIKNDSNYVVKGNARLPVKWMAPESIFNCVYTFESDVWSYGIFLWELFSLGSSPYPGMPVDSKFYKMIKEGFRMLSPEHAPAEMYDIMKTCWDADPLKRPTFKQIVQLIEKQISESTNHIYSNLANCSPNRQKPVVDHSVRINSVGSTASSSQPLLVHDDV

SMILES | Kd (FLT3) | Kd (KIT) | Kd (PDGFRβ) | IC50 (M-NFS-60 cells) | Kd (CSF1R [1]) | IC50 (CSF1R [2])
COc1cc2ncn(Cc3ccc4nc(NCc5ccncc5)sc4c3)c2cc1OC [Example 21, 6-((5,6-dimethoxy-1H-benzo[d]imidazol-1-yl)methyl)-N-(pyridin-4-ylmethyl)benzo[d]thiazol-2-amine] | > 5000 nM | > 2000 nM | > 2000 nM | > 1500 nM | > 50 nM | 200 to 500 nM
COc1cc2ncn(Cc3ccc4nc(Nc5ccccc5)sc4c3)c2cc1OC [Example 22, 6-((5,6-dimethoxy-1H-benzo[d]imidazol-1-yl)methyl)-N-phenylbenzo[d]thiazol-2-amine] | 1000 to 5000 nM | 100 to 500 nM | > 2000 nM | 400 to 1500 nM | 5 to 20 nM | 50 to 200 nM
COc1ccc2ncn(Cc3ccc4nc(N[C@@H]5CCCC[C@H]5O)sc4c3)c2n1 [Example 23, (1R,2R)-2-((6-((5-methoxy-3H-imidazo[4,5-b]pyridin-3-yl)methyl)benzo[d]thiazol-2-yl)amino)cyclohexanol] | ≤ 200 nM | ≤ 100 nM | 50 to 500 nM | 50 to 400 nM | ≤ 5 nM | ≤ 50 nM
COc1cc2ncn(Cc3ccc4nc(NC5CCN(C(C)=O)CC5)sc4c3)c2cc1OC [Example 24, 1-(4-((6-((5,6-dimethoxy-1H-benzo[d]imidazol-1-yl)methyl)benzo[d]thiazol-2-yl)amino)piperidin-1-yl)ethanone acetic acid] | > 5000 nM | > 2000 nM | > 2000 nM | > 1500 nM | > 50 nM | > 500 nM
Nc1nc2cccnc2n1Cc1ccc2nc(N[C@@H]3CCCC[C@H]3O)sc2c1 [Example 26, 3-((2-(((1R,2R)-2-hydroxycyclohexyl)amino)benzo[d]thiazol-6-yl)methyl)-3H-imidazo[4,5-b]pyridin-2-aminium acetic acid] | 200 to 1000 nM | > 2000 nM | > 2000 nM | > 1500 nM | 5 to 20 nM | > 500 nM
CCOc1ccccc1Nc1nc2ccc(Cn3cnc4cc(OC)c(OC)cc43)cc2s1 [Example 27, 6-((5,6-dimethoxy-1H-benzo[d]imidazol-1-yl)methyl)-N-(2-ethoxyphenyl)benzo[d]thiazol-2-amine] | 1000 to 5000 nM | 100 to 500 nM | 50 to 500 nM | 50 to 400 nM | 5 to 20 nM | 50 to 200 nM
COc1cc2ncn(Cc3ccc4nc(NCC5CCCCC5)sc4c3)c2cc1OC [Example 28, N-(cyclohexylmethyl)-6-((5,6-dimethoxy-1H-benzo[d]imidazol-1-yl)methyl)benzo[d]thiazol-2-amine] | ≤ 200 nM | ≤ 100 nM | ≤ 50 nM | 50 to 400 nM | 5 to 20 nM | 50 to 200 nM
O[C@@H]1CCCC[C@H]1Nc1nc2ccc(Cn3cnc4cc(Br)cnc43)cc2s1 [Example 29, (1R,2R)-2-((6-((6-bromo-3H-imidazo[4,5-b]pyridin-3-yl)methyl)benzo[d]thiazol-2-yl)amino)cyclohexanol] | 200 to 1000 nM | ≤ 100 nM | 50 to 500 nM | 50 to 400 nM | 5 to 20 nM | ≤ 50 nM
COc1ccccc1Nc1nc2ccc(Cn3cnc4cc(OC)c(OC)cc43)cc2s1 [Example 30, 6-((5,6-dimethoxy-1H-benzo[d]imidazol-1-yl)methyl)-N-(2-methoxyphenyl)benzo[d]thiazol-2-amine] | 1000 to 5000 nM | ≤ 100 nM | 50 to 500 nM | 50 to 400 nM | ≤ 5 nM | 50 to 200 nM
COc1cc2ncn(Cc3ccc4nc(Nc5ccccc5O)sc4c3)c2cc1OC [Example 31, 2-((6-((5,6-dimethoxy-1H-benzo[d]imidazol-1-yl)methyl)benzo[d]thiazol-2-yl)amino)phenol] | 1000 to 5000 nM | 100 to 500 nM | 50 to 500 nM | > 1500 nM | ≤ 5 nM | > 500 nM
COc1ccc2ncn(Cc3ccc4nc(N[C@@H]5CCCC[C@H]5O)sc4c3)c2c1 [Example 67, (1R,2R)-2-((6-((6-methoxy-1H-benzo[d]imidazol-1-yl)methyl)benzo[d]thiazol-2-yl)amino)cyclohexanol] | 1000 to 5000 nM | ≤ 100 nM | 50 to 500 nM | 50 to 400 nM | 5 to 20 nM | 50 to 200 nM
